Assay [1] addresses T1, Estrogen receptor (Homo sapiens, UniProt P03372).
T1 sequence (P03372 whole entry): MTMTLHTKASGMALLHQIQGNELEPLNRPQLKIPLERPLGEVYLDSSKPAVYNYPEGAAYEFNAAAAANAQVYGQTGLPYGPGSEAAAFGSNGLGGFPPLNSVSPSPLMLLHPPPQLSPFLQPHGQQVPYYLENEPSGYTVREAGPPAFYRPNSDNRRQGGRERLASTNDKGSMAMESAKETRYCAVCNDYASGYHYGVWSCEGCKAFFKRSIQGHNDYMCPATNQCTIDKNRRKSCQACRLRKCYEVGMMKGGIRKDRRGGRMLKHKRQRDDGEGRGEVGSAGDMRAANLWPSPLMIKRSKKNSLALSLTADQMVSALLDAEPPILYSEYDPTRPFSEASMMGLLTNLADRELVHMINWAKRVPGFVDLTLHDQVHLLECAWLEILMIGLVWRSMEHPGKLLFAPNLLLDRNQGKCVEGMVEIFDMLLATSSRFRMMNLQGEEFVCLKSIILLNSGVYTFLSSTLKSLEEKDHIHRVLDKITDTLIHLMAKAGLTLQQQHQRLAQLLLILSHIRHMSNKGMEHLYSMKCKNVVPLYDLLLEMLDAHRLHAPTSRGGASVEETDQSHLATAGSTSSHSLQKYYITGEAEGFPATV
The class given is functional, cell-based, HEK293.
Description: Effect on transactivation of ALP gene expression in HEK293 cells transfected with hERalpha

In assay [2] the target is T2, Estrogen receptor beta (Homo sapiens, UniProt Q92731).
T2 sequence (Q92731 whole entry): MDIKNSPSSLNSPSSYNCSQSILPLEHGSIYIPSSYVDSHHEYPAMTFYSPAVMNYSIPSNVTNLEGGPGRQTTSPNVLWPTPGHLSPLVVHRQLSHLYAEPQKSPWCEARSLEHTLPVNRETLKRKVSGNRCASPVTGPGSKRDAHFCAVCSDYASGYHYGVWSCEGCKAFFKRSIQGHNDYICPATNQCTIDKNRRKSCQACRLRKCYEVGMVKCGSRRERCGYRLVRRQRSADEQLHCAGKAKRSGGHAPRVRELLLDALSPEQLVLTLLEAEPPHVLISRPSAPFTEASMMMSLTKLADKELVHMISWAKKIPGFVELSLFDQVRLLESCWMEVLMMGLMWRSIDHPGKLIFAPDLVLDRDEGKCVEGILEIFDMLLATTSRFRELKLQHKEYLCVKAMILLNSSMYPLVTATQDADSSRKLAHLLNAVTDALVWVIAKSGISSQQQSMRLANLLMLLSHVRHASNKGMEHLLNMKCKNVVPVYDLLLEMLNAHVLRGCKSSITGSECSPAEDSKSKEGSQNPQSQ
Description: Binding affinity to human ERbeta
Assay [3] concerns the target T2, Estrogen receptor beta. The class given is functional, cell-based, HEK293.
Description: Effect on transactivation of ALP gene expression in HEK293 cells transfected with hERbeta
The target in assay [4] is T1, Estrogen receptor.
Description: Binding affinity to human ERalpha
For another assay, the target named is T3, Androgen receptor (Homo sapiens, UniProt P10275).
T3 sequence (P10275 whole entry): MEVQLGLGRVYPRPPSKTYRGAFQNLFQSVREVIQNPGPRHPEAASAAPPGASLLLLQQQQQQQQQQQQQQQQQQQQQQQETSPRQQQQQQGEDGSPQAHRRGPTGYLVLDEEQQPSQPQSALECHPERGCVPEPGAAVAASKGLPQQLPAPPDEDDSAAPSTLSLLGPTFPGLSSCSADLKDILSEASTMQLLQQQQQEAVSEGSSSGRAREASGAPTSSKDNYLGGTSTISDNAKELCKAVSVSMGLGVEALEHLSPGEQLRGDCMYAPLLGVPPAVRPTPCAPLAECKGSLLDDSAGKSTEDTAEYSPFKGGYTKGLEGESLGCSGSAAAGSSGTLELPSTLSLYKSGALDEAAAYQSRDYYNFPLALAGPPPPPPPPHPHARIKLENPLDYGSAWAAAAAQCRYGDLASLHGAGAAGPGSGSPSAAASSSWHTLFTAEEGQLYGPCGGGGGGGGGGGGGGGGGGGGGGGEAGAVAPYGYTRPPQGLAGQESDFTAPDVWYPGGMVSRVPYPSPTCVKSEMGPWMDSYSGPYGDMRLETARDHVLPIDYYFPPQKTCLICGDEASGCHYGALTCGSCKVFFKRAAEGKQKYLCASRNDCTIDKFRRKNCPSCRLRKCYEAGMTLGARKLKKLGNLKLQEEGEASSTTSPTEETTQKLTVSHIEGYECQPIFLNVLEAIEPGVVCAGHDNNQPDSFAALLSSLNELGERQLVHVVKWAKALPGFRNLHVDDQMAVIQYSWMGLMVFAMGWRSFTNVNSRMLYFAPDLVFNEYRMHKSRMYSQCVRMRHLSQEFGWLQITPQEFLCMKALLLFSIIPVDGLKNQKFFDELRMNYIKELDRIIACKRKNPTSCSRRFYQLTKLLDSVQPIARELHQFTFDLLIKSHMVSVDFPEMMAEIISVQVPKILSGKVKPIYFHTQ

Molecules are shown by their SMILES.

Description for Androgen receptor: Inhibitory activity against AR

Consider `CO/C=C\[C@]12CC[C@H](O)CC1=CCC1C2CC[C@@]2(C)C1CC[C@@H]2O` (stereo partly specified), for which the EC50 on Estrogen receptor [1] amounted to 3240 nM; at Estrogen receptor beta [3], 188 nM. Besides, the IC50 on Estrogen receptor beta [2] was determined as 303 nM; against Estrogen receptor [4] it was 3350 nM; at Androgen receptor, 1400 nM.

Consider `C/C=C\[C@]12CC[C@H](O)CC1=CCC1C2CC[C@@]2(C)C1CC[C@@H]2O` (stereo partly specified), for which the EC50 on Estrogen receptor [1] is 344 nM; at Estrogen receptor beta [3], 21 nM. The IC50 on Estrogen receptor beta [2] is 16 nM; against Estrogen receptor [4] it was 1960 nM.

In the case of `CC[C@]12CC[C@H](O)CC1=CCC1C2CC[C@@]2(C)C1CC[C@@H]2O` (stereo partly specified), the IC50 at Estrogen receptor beta [2] was 16 nM; on Estrogen receptor [4], 2330 nM; on Androgen receptor, 33 nM.

For the molecule `C[C@]12CCC3C(CC=C4C[C@@H](O)CC[C@@]43C=O)C1CC[C@@H]2O` (stereo partly specified), the EC50 was 844 nM on Estrogen receptor [1] and 78 nM on Estrogen receptor beta [3]. Moreover, the IC50 against Estrogen receptor beta [2] is 230 nM; on Estrogen receptor [4], more than 10000 nM; at Androgen receptor it was more than 5000 nM.

With `C=C[C@]12CCC(=O)C=C1CCC1C2CC[C@@]2(C)C1CC[C@@H]2O` (stereo partly specified), the EC50 on Estrogen receptor [1] was more than 1000 nM; at Estrogen receptor beta [3] it was 379 nM. For the same molecule, the values for the IC50 against Estrogen receptor beta [2], against Estrogen receptor [4] and at Androgen receptor were 782 nM, more than 10000 nM and 7.9 nM, respectively.

In the case of `C[C@]12CCC3C(CC=C4C[C@@H](O)CC[C@@]43/C=C/Cl)C1CC[C@@H]2O` (stereo partly specified), the EC50 at Estrogen receptor [1] worked out at 603 nM; on Estrogen receptor beta [3] it was 68 nM. The figures for the IC50 against Estrogen receptor beta [2], at Estrogen receptor [4] and on Androgen receptor were 122 nM, 5600 nM and 1440 nM, respectively.

Turning to `C/C=C/[C@]12CC[C@H](O)CC1=CCC1C2CC[C@@]2(C)C1CC[C@@H]2O` (stereo partly specified), the results for the EC50 at Estrogen receptor [1] and at Estrogen receptor beta [3] were 47 nM and 39 nM, respectively. The IC50 at Estrogen receptor beta [2] was 96 nM; on Estrogen receptor [4], 1160 nM; against Androgen receptor, 843 nM.

On to `C=C[C@]12CC[C@H](O)CC1=CCC1C2CC[C@@]2(C)C1CC[C@]2(C)O` (stereo partly specified), for which the EC50 amounted to 494 nM on Estrogen receptor [1] and 31 nM on Estrogen receptor beta [3]. The values for the IC50 on Estrogen receptor beta [2], at Estrogen receptor [4] and against Androgen receptor were 25 nM, 1050 nM and 169 nM, respectively.

Consider `C=C[C@]12CC[C@H](O)CC1=CCC1C2CC[C@@]2(C)C1CC[C@@H]2O` (stereo partly specified), for which the EC50 came out at 982 nM on Estrogen receptor [1] and 4.1 nM at Estrogen receptor beta [3]. Besides, the values for the IC50 against Estrogen receptor beta [2], against Estrogen receptor [4] and against Androgen receptor were 11 nM, 2240 nM and 33 nM, respectively.

For the molecule `C#CC[C@]12CC[C@H](O)CC1=CCC1C2CC[C@@]2(C)C1CC[C@@H]2O` (stereo partly specified), the EC50 at Estrogen receptor [1] came out at 984 nM; on Estrogen receptor beta [3], 153 nM. For the same molecule, the IC50 on Estrogen receptor beta [2] came to 286 nM; at Estrogen receptor [4], 4640 nM; on Androgen receptor it was 1720 nM.

Regarding `C#CC12CC[C@H](O)CC1=CCC1C2CC[C@@]2(C)C1CC[C@@H]2O` (single isomer, unassigned), the EC50 at Estrogen receptor [1] came to 160 nM; on Estrogen receptor beta [3] it was 8 nM. Also, the IC50 amounted to 17 nM on Estrogen receptor beta [2], 425 nM on Estrogen receptor [4] and 1760 nM against Androgen receptor.

For the molecule `C[C@]12CCC3C(CC=C4C[C@@H](O)CC[C@@]43/C=C\Br)C1CC[C@@H]2O` (stereo partly specified), the EC50 at Estrogen receptor [1] was more than 1000 nM; at Estrogen receptor beta [3] it was 96 nM. Also, the IC50 is 212 nM against Estrogen receptor beta [2], more than 10000 nM against Estrogen receptor [4] and 20 nM against Androgen receptor.

For `CC/C=C\[C@]12CC[C@H](O)CC1=CCC1C2CC[C@@]2(C)C1CC[C@@H]2O` (stereo partly specified), the EC50 at Estrogen receptor [1] is 719 nM; at Estrogen receptor beta [3], 252 nM. Further, the IC50 on Estrogen receptor beta [2] turned out to be 361 nM; against Estrogen receptor [4], 3040 nM; at Androgen receptor it was 3770 nM.

Regarding `CCC[C@]12CC[C@H](O)CC1=CCC1C2CC[C@@]2(C)C1CC[C@@H]2O` (stereo partly specified), the figures for the IC50 against Estrogen receptor beta [2], on Estrogen receptor [4] and at Androgen receptor were 132 nM, 5160 nM and 1770 nM, respectively.

Turning to `C[C@]12CCC3C(CC=C4C[C@@H](O)CC[C@@]43/C=C\F)C1CC[C@@H]2O` (stereo partly specified), the EC50 was 622 nM at Estrogen receptor [1] and 3.8 nM on Estrogen receptor beta [3]. Moreover, the IC50 against Estrogen receptor beta [2] is 25 nM; at Estrogen receptor [4], 4280 nM; on Androgen receptor, 11 nM.

Turning to `C#CC1(O)CCC2C3CC=C4C[C@@H](O)CC[C@]4(C=C)C3CC[C@@]21C` (single isomer, unassigned), the EC50 was determined as 10 nM at Estrogen receptor [1] and 24 nM on Estrogen receptor beta [3]. The IC50 worked out at 14 nM against Estrogen receptor beta [2], 147 nM on Estrogen receptor [4] and 287 nM against Androgen receptor.

Take `C[C@]12CCC3C(CC=C4C[C@@H](O)CC[C@@]43/C=C\Cl)C1CC[C@@H]2O` (stereo partly specified): the EC50 at Estrogen receptor [1] is more than 1000 nM; on Estrogen receptor beta [3], 91 nM. Besides, the IC50 against Estrogen receptor beta [2] came out at 83 nM; against Estrogen receptor [4], 6690 nM; against Androgen receptor, 172 nM.

For the molecule `C[C@]12CCC3C(CC=C4C[C@@H](O)CC[C@@]43/C=C/F)C1CC[C@@H]2O` (stereo partly specified), the EC50 on Estrogen receptor [1] was 324 nM; at Estrogen receptor beta [3], 8.7 nM. Besides, the results for the IC50 against Estrogen receptor beta [2], on Estrogen receptor [4] and against Androgen receptor were 22 nM, 4160 nM and 85 nM, respectively.

In the case of `CO/C=C/[C@]12CC[C@H](O)CC1=CCC1C2CC[C@@]2(C)C1CC[C@@H]2O` (stereo partly specified), the figures for the EC50 at Estrogen receptor [1] and on Estrogen receptor beta [3] were 583 nM and 827 nM, respectively. The IC50 was 1300 nM against Estrogen receptor beta [2], more than 10000 nM at Estrogen receptor [4] and 4620 nM against Androgen receptor.

As to `C[C@]12CCC3C(CC=C4C[C@@H](O)CC[C@@]43CO)C1CC[C@@H]2O` (stereo partly specified), the EC50 at Estrogen receptor [1] is more than 1000 nM; at Estrogen receptor beta [3], more than 641 nM. Also, the results for the IC50 against Estrogen receptor beta [2], against Estrogen receptor [4] and against Androgen receptor were 1750 nM, 6320 nM and more than 5000 nM, respectively.

Consider `C=CC[C@]12CC[C@H](O)CC1=CCC1C2CC[C@@]2(C)C1CC[C@@H]2O` (stereo partly specified), for which the EC50 came to 1000 nM on Estrogen receptor [1] and 148 nM on Estrogen receptor beta [3]. In addition, the IC50 against Estrogen receptor beta [2] amounted to 128 nM; at Estrogen receptor [4], 1740 nM; on Androgen receptor, 1770 nM.

On to `C[C@]12CCC3C(CC=C4C[C@@H](O)CC[C@@]43/C=C/Br)C1CC[C@@H]2O` (stereo partly specified), for which the EC50 on Estrogen receptor [1] was more than 1000 nM; on Estrogen receptor beta [3] it was 67 nM. Also, the IC50 at Estrogen receptor beta [2] was found to be 210 nM; on Estrogen receptor [4], 3980 nM; against Androgen receptor it was 120 nM.

As to `C[C@]12CC[C@H]3[C@@H](CCC4=CC(=O)CC[C@@]43C)[C@@H]1CC[C@@H]2O` [TESTOSTERONE], the IC50 on Estrogen receptor beta [2] is more than 10000 nM.

`C[C@]12CCC3C(CC=C4C[C@@H](O)CC[C@@]43CC=O)C1CC[C@@H]2O` (stereo partly specified): the EC50 at Estrogen receptor [1] and on Estrogen receptor beta [3] was more than 1000 nM in each case. Also, the half-maximal inhibitory concentration (IC50) was 1620 nM at Estrogen receptor beta [2], more than 1000 nM against Estrogen receptor [4] and more than 5000 nM on Androgen receptor.

In the case of `CC#C[C@]12CC[C@H](O)CC1=CCC1C2CC[C@@]2(C)C1CC[C@@H]2O` (stereo partly specified), the figures for the EC50 on Estrogen receptor [1] and at Estrogen receptor beta [3] were 1000 nM and 171 nM, respectively. In addition, the IC50 against Estrogen receptor beta [2] was 381 nM; on Estrogen receptor [4], more than 8420 nM; on Androgen receptor it was 3730 nM.

Source of the values: ChEMBL document CHEMBL1149417 (Bioorg Med Chem Lett, 2006).
